Among the data in patent US6849635B2, “Sulfonamides” (SmithKline Beecham Corporation, priority 2001, dated 2005) are melting point and Ki values, retold here.

Structures are written as SMILES.

Data set [1] concerns the target T1, cloned human and rat GPR-14 (UniProt Q9UKP6).
T1 sequence (Q9UKP6 1-389): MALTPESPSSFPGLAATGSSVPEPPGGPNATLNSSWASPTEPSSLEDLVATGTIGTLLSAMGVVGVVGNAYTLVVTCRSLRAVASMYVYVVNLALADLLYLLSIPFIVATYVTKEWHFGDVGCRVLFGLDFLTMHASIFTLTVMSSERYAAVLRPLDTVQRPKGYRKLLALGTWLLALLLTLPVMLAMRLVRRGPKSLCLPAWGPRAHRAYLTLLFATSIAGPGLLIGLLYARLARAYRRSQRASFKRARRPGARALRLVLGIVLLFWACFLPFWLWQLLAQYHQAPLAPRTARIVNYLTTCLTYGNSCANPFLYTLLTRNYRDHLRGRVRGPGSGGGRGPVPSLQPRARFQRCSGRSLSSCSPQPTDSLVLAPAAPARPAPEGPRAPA
In words: Radioligand binding, [125I] h-U-II on HEK-293 cell membranes. The following applies: HEK-293 cell membranes with stable cloned GPR-14, 200 pM [125I] h-U-II; species of receptor not given. Here is the method:
HEK-293 cell membranes containing stable cloned human and rat GPR-14 (20 ug/assay) were incubated with 200 pM [125I] h-U-II (200 Ci/mmol^−1 in the presence of increasing concentrations of test compounds in DMSO (0.1 nM to 10 uM), in a final incubation volume of 200 ul (20 mM Tris-HCl, 5 mM MgCl2). Incubation was done for 30 minutes at room temperature followed by filtration GF/B filters with Brandel cell harvester. ^125I labeled U-II binding was quantitated by gamma counting. Nonspecific binding was defined by ^125I U-II binding in the presence of 100 nM of unlabeled human U-II. Analysis of the data was performed by nonlinear least square fitting.

Take `CN(C)CCOc1cc(NS(=O)(=O)c2ccc(Oc3cccc(Cl)c3C#N)cc2)ccc1Cl` [Example 1, 4-(3-Chloro-2-cyano-phenoxy)N-[4-chloro-3-(2-dimethylamino-ethoxy)-phenyl]-benzenesulfonamide]: the melting point is 103 to 106 °C (dec.). In the case of `CCN(CC)CCOc1cc(NS(=O)(=O)c2cc(Cl)c(Oc3ccc([N+](=O)[O-])cc3Cl)c(Cl)c2)ccc1Cl` [Example 19, 3,5-Dichloro-N-[4-chloro-3-(2-diethylamino-ethoxy)-phenyl]-4-(2-chloro-4-nitro-phenoxy)-benzenesulfonamide], the affinity in data set [1], expressed as Ki, was 520 nM.
